In ChEMBL document CHEMBL4680099, “Discovery of Leucyladenylate Sulfamates as Novel Leucyl-tRNA Synthetase (LRS)-Targeted Mammalian Target of Rapamycin Complex 1 (mTORC1) Inhibitors” (J Med Chem, 2016) one finds IC50 and inhibition data, which are given here for five compounds.

Structures are written as SMILES. Calls of active or inactive are those of the source. No cut-off for these calls is given here. Bounds are passed on as bounds.

Experiment [1] addresses T1, Leucine--tRNA ligase, cytoplasmic (Homo sapiens, UniProt Q9P2J5). The experiment is described as follows: Inhibition of catalytic activity of LRS (unknown origin) by aminoleucylation assay.
Target sequence in this assay (Q9P2J5 whole entry): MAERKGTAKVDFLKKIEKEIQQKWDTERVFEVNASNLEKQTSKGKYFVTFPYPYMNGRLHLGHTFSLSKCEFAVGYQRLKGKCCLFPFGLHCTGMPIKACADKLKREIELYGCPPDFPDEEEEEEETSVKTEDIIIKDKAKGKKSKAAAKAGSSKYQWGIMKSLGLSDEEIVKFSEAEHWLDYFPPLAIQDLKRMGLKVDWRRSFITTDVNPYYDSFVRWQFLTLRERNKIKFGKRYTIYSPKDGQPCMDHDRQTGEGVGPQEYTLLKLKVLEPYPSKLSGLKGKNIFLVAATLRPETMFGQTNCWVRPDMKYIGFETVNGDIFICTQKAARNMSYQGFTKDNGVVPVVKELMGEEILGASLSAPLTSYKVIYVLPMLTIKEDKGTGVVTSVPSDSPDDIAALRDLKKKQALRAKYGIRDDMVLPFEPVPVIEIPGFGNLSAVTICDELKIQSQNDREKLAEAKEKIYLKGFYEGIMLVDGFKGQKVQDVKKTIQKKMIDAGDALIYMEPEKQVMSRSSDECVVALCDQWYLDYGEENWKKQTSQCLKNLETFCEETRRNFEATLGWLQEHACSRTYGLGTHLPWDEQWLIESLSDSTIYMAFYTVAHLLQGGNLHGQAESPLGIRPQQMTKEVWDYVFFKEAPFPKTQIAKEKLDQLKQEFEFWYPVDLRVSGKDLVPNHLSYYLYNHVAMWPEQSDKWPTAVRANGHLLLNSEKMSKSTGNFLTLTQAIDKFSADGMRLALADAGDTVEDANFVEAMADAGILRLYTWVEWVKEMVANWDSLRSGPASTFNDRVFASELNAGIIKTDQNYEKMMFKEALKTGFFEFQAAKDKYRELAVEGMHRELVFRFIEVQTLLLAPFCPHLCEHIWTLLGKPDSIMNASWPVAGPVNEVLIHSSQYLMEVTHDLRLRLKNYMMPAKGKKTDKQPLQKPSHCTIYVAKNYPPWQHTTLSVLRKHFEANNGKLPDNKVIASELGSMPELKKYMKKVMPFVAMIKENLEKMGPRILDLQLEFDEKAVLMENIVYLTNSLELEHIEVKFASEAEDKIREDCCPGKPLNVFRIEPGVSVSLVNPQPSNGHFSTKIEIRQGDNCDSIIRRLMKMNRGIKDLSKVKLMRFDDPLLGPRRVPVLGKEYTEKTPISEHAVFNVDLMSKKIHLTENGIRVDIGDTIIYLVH
For experiment [2], the target named is T1, Leucine--tRNA ligase, cytoplasmic. The experiment is described as follows: Inhibition of catalytic activity of LRS in HEK293 cells assessed as reduction in mTORC1 activation by measuring leucine-induced S6K phosphorylation at 12.5 to 200 uM by immunoblotting analysis. The format is cell-based. The settings on record: dose 12.5-200 µM. Background: A western blot detects proteins with antibodies after separation by electrophoresis.
Target sequence in this assay (Q9P2J5 whole entry, looked up): as the sequence (Q9P2J5 whole entry) above

In experiment [3] the target is T2, mTORC1 (Homo sapiens) (UniProt P42345+Q8N122+Q9BVC4). The experiment in a line: Inhibition of flag-tagged mTORC1 (unknown origin) at 200 uM. Type of experiment: protein-complex assay.
The next experiment deals with A549. The experiment is described as follows: Cytotoxicity in human A549 cells by sulforhodamine B colorimetric assay. Type of experiment: functional, cell-based.
The subject of the next experiment is HCT-116. The experiment is described as follows: Cytotoxicity in human HCT-116 cells by sulforhodamine B colorimetric assay. The format is functional, cell-based. Background: Sulforhodamine B stains cellular protein and so reports cell mass.
The test system of another experiment is K562. The experiment is described as follows: Cytotoxicity in human K562 cells by sulforhodamine B colorimetric assay. The format is functional, cell-based.
For a further experiment, the system named is MDA-MB-231. The experiment is described as follows: Cytotoxicity in human MDA-MB-231 cells by sulforhodamine B colorimetric assay. The format is functional, cell-based.
In another experiment the test system is SK-HEP1. The experiment is described as follows: Cytotoxicity in human SK-HEP1 cells by sulforhodamine B colorimetric assay. Type of experiment: functional, cell-based.
A further experiment deals with SNU-638. The experiment is described as follows: Cytotoxicity in human SNU-638 cells by sulforhodamine B colorimetric assay. The format is functional, cell-based.
The subject of the next experiment is MRC5. The experiment in a line: Cytotoxicity in human MRC5 cells by sulforhodamine B colorimetric assay. The format is cell-based.
The target of experiment [4] is T2, mTORC1 (Homo sapiens). The settings on record: HEK293, dose 100.0 nM.
Description: Inhibition of mTORC1 activation in HEK293 cells assessed as reduction leucine-induced S6K phosphorylation at 100 nM by immunoblotting analysis

T2 sequence (Q8N122 whole entry, looked up, other chains not shown): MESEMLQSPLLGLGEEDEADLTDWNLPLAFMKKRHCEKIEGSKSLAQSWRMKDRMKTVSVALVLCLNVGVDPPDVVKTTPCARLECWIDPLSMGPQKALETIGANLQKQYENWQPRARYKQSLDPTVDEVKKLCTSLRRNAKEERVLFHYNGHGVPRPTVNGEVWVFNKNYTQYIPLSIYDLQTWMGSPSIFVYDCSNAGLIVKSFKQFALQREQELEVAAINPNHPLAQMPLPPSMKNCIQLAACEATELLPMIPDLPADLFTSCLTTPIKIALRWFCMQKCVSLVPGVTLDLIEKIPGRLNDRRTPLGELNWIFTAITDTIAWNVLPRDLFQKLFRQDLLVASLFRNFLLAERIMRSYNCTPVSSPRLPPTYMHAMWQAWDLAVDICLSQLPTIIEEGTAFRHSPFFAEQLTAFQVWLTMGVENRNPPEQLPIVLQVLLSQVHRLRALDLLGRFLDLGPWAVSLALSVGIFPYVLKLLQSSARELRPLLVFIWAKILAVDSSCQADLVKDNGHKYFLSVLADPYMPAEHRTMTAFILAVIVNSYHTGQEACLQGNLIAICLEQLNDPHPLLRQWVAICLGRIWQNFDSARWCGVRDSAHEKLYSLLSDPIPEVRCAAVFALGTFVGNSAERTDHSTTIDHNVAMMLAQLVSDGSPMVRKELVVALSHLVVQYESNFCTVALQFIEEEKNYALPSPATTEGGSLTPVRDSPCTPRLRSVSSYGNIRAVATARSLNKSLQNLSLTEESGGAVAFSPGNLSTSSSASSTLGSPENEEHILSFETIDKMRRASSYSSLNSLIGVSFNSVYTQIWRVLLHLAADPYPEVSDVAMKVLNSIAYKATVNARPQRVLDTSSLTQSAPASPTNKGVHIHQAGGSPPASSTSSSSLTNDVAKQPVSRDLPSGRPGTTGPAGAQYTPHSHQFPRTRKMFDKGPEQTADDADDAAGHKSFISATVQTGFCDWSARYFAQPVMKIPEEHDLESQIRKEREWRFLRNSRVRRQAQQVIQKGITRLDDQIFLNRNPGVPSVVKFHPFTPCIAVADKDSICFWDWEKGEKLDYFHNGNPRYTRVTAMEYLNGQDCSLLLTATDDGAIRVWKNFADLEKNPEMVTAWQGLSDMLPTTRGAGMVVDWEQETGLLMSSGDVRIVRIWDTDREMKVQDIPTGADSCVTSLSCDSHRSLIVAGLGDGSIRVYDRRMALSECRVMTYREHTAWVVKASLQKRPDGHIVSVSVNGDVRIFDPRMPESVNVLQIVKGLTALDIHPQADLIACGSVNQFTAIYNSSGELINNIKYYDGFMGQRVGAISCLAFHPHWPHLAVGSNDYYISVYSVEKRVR
T2 sequence (Q9BVC4 whole entry, looked up, other chains not shown): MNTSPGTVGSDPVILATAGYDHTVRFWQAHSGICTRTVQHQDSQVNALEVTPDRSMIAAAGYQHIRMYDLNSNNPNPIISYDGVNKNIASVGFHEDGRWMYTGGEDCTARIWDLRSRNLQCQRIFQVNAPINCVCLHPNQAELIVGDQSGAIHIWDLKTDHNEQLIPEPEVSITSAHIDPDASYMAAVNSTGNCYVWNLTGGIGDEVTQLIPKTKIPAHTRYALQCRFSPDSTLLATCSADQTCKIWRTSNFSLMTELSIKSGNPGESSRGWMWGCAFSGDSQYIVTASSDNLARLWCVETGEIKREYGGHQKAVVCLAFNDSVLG

The IC50 is the concentration needed to halve the response being measured. Read a high IC50 as a need for much substance. As to `CC(C)C[C@H](O)C(=O)NS(=O)(=O)OC[C@H]1O[C@@H](n2cnc3c(N)nc(I)nc32)[C@H](O)[C@@H]1O`, the IC50 was determined as 337 nM in experiment [1]; 1750 nM with A549; 540 nM with HCT-116; 1060 nM in the experiment with K562; 12600 nM in the experiment with MDA-MB-231; 5630 nM in the experiment with SK-HEP1. Moreover, the IC50 was 5700 nM in the experiment with SNU-638 and greater than 50000 nM in the experiment on MRC5. Also, the inhibition result in experiment [2] is “Dose-dependent effect”. At mTORC1 (Homo sapiens) [3], the inhibition result is “inactive”.

On to `CC(C)C[C@H](N)C(=O)NS(=O)(=O)OC[C@H]1O[C@@H](n2cnc3c(N)ncnc32)[C@H](O)[C@@H]1O` [LEUSA], for which the IC50 in [1] is 22.3 nM; in the experiment with A549, 590 nM; in the experiment with HCT-116, 240 nM; in the experiment on K562, 400 nM; in the experiment with MDA-MB-231, 730 nM; in the experiment on SK-HEP1, 540 nM. Moreover, the IC50 is 840 nM in the experiment with SNU-638 and 5900 nM in the experiment with MRC5. Further, the inhibition result in [2] is “inactive”.

Consider `COc1cc([C@@H]2c3cc4c(cc3[C@@H](O[C@@H]3O[C@@H]5CO[C@@H](C)O[C@H]5[C@H](O)[C@H]3O)[C@H]3COC(=O)[C@H]23)OCO4)cc(OC)c1O` [ETOPOSIDE], for which the half-maximal inhibitory concentration (IC50) in the experiment on A549 was found to be 240 nM; with HCT-116, 1250 nM; with K562 it was 1790 nM; with MDA-MB-231, 7350 nM; in the experiment on SK-HEP1, 250 nM; in the experiment on SNU-638, 560 nM.

As to `CO[C@H]1C[C@@H]2CC[C@@H](C)[C@@](O)(O2)C(=O)C(=O)N2CCCC[C@H]2C(=O)O[C@H]([C@H](C)C[C@@H]2CC[C@@H](O)[C@H](OC)C2)CC(=O)[C@H](C)/C=C(\C)[C@@H](O)[C@@H](OC)C(=O)[C@H](C)C[C@H](C)/C=C/C=C/C=C/1C`, at mTORC1 (Homo sapiens) [4], the inhibition entry is “Active”.

In the case of `CC(C)[C@@H](O)[C@H](O)C(=O)NS(=O)(=O)OC[C@H]1O[C@@H](n2cnc3c(N)ncnc32)[C@H](O)[C@@H]1O`, the IC50 in [1] came out at 70 nM; in the experiment on A549, 1640 nM; in the experiment on HCT-116 it was 1440 nM; in the experiment with K562 it was 2220 nM; in the experiment with MDA-MB-231, 7010 nM; with SK-HEP1, 6810 nM. The IC50 in the experiment on SNU-638 is 8980 nM; in the experiment with MRC5, greater than 50000 nM. Further, the inhibition result in experiment [2] is “Dose-dependent effect”. Besides, the inhibition entry on mTORC1 (Homo sapiens) [3] was “inactive”.
